Results reported in ChEMBL document CHEMBL3885881, “DrugMatrix”.

Species on record: Rattus norvegicus
Assay: DrugMatrix - Regimen: Daily Repeat
Assay type: toxicity, organism-based, Sprague-Dawley
Parameters: regimen Daily Repeat, gender Male, age 6-8 weeks
Settings: in vivo, po, route oral GAVAGE, vehicle .5 % CMC; for ABSOLUTE BASOPHIL / ABSOLUTE EOSINOPHIL / ABSOLUTE LYMPHOCYTE / ABSOLUTE MONOCYTE / ABSOLUTE SEGMENTED NEUTROPHIL / BASOPHIL / EOSINOPHIL / ERYTHROCYTE COUNT / HEMATOCRIT / HEMOGLOBIN / LEUKOCYTE COUNT / LYMPHOCYTE / MEAN CORPUSCULAR HEMOGLOBIN / MEAN CORPUSCULAR HEMOGLOBIN CONCENTRATION / MEAN CORPUSCULAR VOLUME / MONOCYTE / NEUTROPHIL / NUCLEATED RED BLOOD CELLS / PLATELET COUNT: tissue Blood; for ALANINE AMINOTRANSFERASE / ALBUMIN / ALKALINE PHOSPHATASE / ASPARTATE AMINOTRANSFERASE / BLOOD UREA NITROGEN / CARBON DIOXIDE / CHLORIDE / CHOLESTEROL / CREATINE PHOSPHOKINASE / CREATININE / GLUCOSE / LACTATE DEHYDROGENASE / LIPASE / PHOSPHORUS / POTASSIUM / SODIUM / TOTAL BILIRUBIN / TOTAL PROTEIN / URIC ACID: tissue Plasma
[1] = 3 mg/kg, 120 h, dose level Low, time 5 day
[2] = 17 mg/kg, 72 h, dose level High, time 3 day
[3] = 17 mg/kg, 120 h, dose level High, time 5 day

COc1nc(C)nc(Cl)c1N=C1NCCN1 [MOXONIDINE]
ABSOLUTE BASOPHIL [1]: 0 CELLS/uL
ABSOLUTE EOSINOPHIL [1]: 0 CELLS/uL
ABSOLUTE LYMPHOCYTE [1]: 12936.33 CELLS/uL
ABSOLUTE MONOCYTE [1]: 47.33 CELLS/uL
ABSOLUTE SEGMENTED NEUTROPHIL [1]: 1849.67 CELLS/uL
BASOPHIL [1]: 0%
EOSINOPHIL [1]: 0%
ERYTHROCYTE COUNT [1]: 5.72 x10E6/uL
HEMATOCRIT [1]: 36.07%
HEMOGLOBIN [1]: 14.37 G/DL
LEUKOCYTE COUNT [1]: 14.83 x10E3/uL
LYMPHOCYTE [1]: 87%
MEAN CORPUSCULAR HEMOGLOBIN [1]: 25.13 pg
MEAN CORPUSCULAR HEMOGLOBIN CONCENTRATION [1]: 39.8 G/DL
MEAN CORPUSCULAR VOLUME [1]: 63.1 fL
MONOCYTE [1]: 0.33%
NEUTROPHIL [1]: 12.67%
NUCLEATED RED BLOOD CELLS [1]: 0.33 /100WBC
PLATELET COUNT [1]: 943.67 x10E3/uL
ALANINE AMINOTRANSFERASE [1]: 44.67 u/L
ALBUMIN [1]: 4.13 G/DL
ALKALINE PHOSPHATASE [1]: 346 u/L
ASPARTATE AMINOTRANSFERASE [1]: 83.67 u/L
BLOOD UREA NITROGEN [1]: 17.67 mg/dL
CARBON DIOXIDE [1]: 29.33 mmol/L
CHLORIDE [1]: 98 MEQ/L
CHOLESTEROL [1]: 69.67 mg/dL
CREATINE PHOSPHOKINASE [1]: 484.67 u/L
CREATININE [1]: 0.19 mg/dL
GLUCOSE [1]: 147 mg/dL
LACTATE DEHYDROGENASE [1]: 166.67 u/L
LIPASE [1]: 10 u/L
PHOSPHORUS [1]: 13.4 mg/dL
POTASSIUM [1]: 6.24 MEQ/L
SODIUM [1]: 145.27 MEQ/L
TOTAL BILIRUBIN [1]: 0.2 mg/dL
TOTAL PROTEIN [1]: 6.03 G/DL
URIC ACID [1]: 1.57 mg/dL
ABSOLUTE BASOPHIL [2]: 0 CELLS/uL
ABSOLUTE EOSINOPHIL [2]: 110.67 CELLS/uL
ABSOLUTE LYMPHOCYTE [2]: 13070 CELLS/uL
ABSOLUTE MONOCYTE [2]: 298.67 CELLS/uL
ABSOLUTE SEGMENTED NEUTROPHIL [2]: 1454 CELLS/uL
BASOPHIL [2]: 0%
EOSINOPHIL [2]: 0.67%
ERYTHROCYTE COUNT [2]: 6.02 x10E6/uL
HEMATOCRIT [2]: 36.53%
HEMOGLOBIN [2]: 14.5 G/DL
LEUKOCYTE COUNT [2]: 14.93 x10E3/uL
LYMPHOCYTE [2]: 87.33%
MEAN CORPUSCULAR HEMOGLOBIN [2]: 24.07 pg
MEAN CORPUSCULAR HEMOGLOBIN CONCENTRATION [2]: 39.67 G/DL
MEAN CORPUSCULAR VOLUME [2]: 60.63 fL
MONOCYTE [2]: 2%
NEUTROPHIL [2]: 10%
NUCLEATED RED BLOOD CELLS [2]: 0 /100WBC
PLATELET COUNT [2]: 1171.33 x10E3/uL
ALANINE AMINOTRANSFERASE [2]: 46.67 u/L
ALBUMIN [2]: 3.9 G/DL
ALKALINE PHOSPHATASE [2]: 274 u/L
ASPARTATE AMINOTRANSFERASE [2]: 131.67 u/L
BLOOD UREA NITROGEN [2]: 17.67 mg/dL
CARBON DIOXIDE [2]: 23.67 mmol/L
CHLORIDE [2]: 104 MEQ/L
CHOLESTEROL [2]: 63 mg/dL
CREATINE PHOSPHOKINASE [2]: 1708.67 u/L
CREATININE [2]: 0.17 mg/dL
GLUCOSE [2]: 146 mg/dL
LACTATE DEHYDROGENASE [2]: 536.33 u/L
LIPASE [2]: 8.67 u/L
PHOSPHORUS [2]: 9.2 mg/dL
POTASSIUM [2]: 5.68 MEQ/L
SODIUM [2]: 142.1 MEQ/L
TOTAL BILIRUBIN [2]: 0.17 mg/dL
TOTAL PROTEIN [2]: 5.43 G/DL
URIC ACID [2]: 1.53 mg/dL
ABSOLUTE BASOPHIL [3]: 0 CELLS/uL
ABSOLUTE EOSINOPHIL [3]: 74 CELLS/uL
ABSOLUTE LYMPHOCYTE [3]: 15545.33 CELLS/uL
ABSOLUTE MONOCYTE [3]: 52.33 CELLS/uL
ABSOLUTE SEGMENTED NEUTROPHIL [3]: 1961.67 CELLS/uL
BASOPHIL [3]: 0%
EOSINOPHIL [3]: 0.33%
ERYTHROCYTE COUNT [3]: 5.87 x10E6/uL
HEMATOCRIT [3]: 34.5%
HEMOGLOBIN [3]: 13.8 G/DL
LEUKOCYTE COUNT [3]: 17.63 x10E3/uL
LYMPHOCYTE [3]: 88.67%
MEAN CORPUSCULAR HEMOGLOBIN [3]: 23.5 pg
MEAN CORPUSCULAR HEMOGLOBIN CONCENTRATION [3]: 40 G/DL
MEAN CORPUSCULAR VOLUME [3]: 58.73 fL
MONOCYTE [3]: 0.33%
NEUTROPHIL [3]: 10.67%
NUCLEATED RED BLOOD CELLS [3]: 0.33 /100WBC
PLATELET COUNT [3]: 1240.33 x10E3/uL
ALANINE AMINOTRANSFERASE [3]: 48 u/L
ALBUMIN [3]: 3.97 G/DL
ALKALINE PHOSPHATASE [3]: 270.33 u/L
ASPARTATE AMINOTRANSFERASE [3]: 91.33 u/L
BLOOD UREA NITROGEN [3]: 23 mg/dL
CARBON DIOXIDE [3]: 25 mmol/L
CHLORIDE [3]: 104.67 MEQ/L
CHOLESTEROL [3]: 70.33 mg/dL
CREATINE PHOSPHOKINASE [3]: 333.33 u/L
CREATININE [3]: 0.21 mg/dL
GLUCOSE [3]: 128 mg/dL
LACTATE DEHYDROGENASE [3]: 169 u/L
LIPASE [3]: 9.67 u/L
PHOSPHORUS [3]: 10.3 mg/dL
POTASSIUM [3]: 5.89 MEQ/L
SODIUM [3]: 144.27 MEQ/L
TOTAL BILIRUBIN [3]: 0.17 mg/dL
TOTAL PROTEIN [3]: 5.67 G/DL
URIC ACID [3]: 1.43 mg/dL
